# Data as given in patent USRE50563E1, “Use of an all-D-pentapeptide chemokine antagonist to reduce opioid dose in a person with pain” (Creative Bio-Peptides, Inc., priority 2017, dated 2025).
# Like-named read-outs stand apart in the source and are kept apart here.
# Assays:
# [1] = tested on: Streptozotocin (STZ) induced diabetic rats
# Procedure: (§1) The induction of diabetes was confirmed 72 h after streptozotocin injection by measurement of blood glucose levels using Contour® blood glucose diagnostic kit (Bayer HealthCare, Canada). Body weight and blood glucose levels were measured before and 3 days after streptozotocin injection, once a week for three weeks after diabetes induction. Only rats having blood glucose concentration consistently higher than 300 mg/dl were used for the present study.
# (§2) Appropriate concentration for each dose was adjusted accordingly.
# Animals were placed in Plexiglas boxes on an elevated metal mesh floor and allowed 60 min for habituation before testing. […] Withdrawal thresholds of both paws were averaged as one single value per animal.
# (§3) Assessment on the effects of RAP103 on mechanical and cold allodynia was performed between 2-4 hours following the drug administration.
# (§4) All data were presented as means±SEM. Statistical analysis was performed by two-way ANOVA followed by Bonferroni post-tests. The criterion for statistical significance was P<0.05.
# [2] = tested on: Male, Sprague-Dawley rats; settings: for morphine analgesia in an animal model of post-surgical pain (reversal of mechanical allodynia): RAP-103 0.5 mg/kg i.p. plus morphine 5.0 mg/kg s.c. vs morphine alone, 25 min post-surgery, FIG. 4
# [3] = tested on: cytokines, IL1β, TNFα; chemokines CCL2, CCL3; and chemokines receptors CCR2 and CCR5; settings: 0.5 mg/kg, for 7 days, p.o., FIGS. 3A-F
# Procedure: To test the hypothesis, we first used behavioral and molecular/cellular approaches to explore chronic pain development and inflammatory reaction in Streptozotocin (STZ) induced diabetic rats. […] CCL2 and CCL3 are two chemokines well known in mediating immune cell trafficking and immune response in the context of neuropathic pain.
# as §1
# [4] = tested on: Streptozotocin (STZ) induced diabetic rats; settings: oral gavage daily, FIGS. 2A-B
# Procedure: as §1, §2
# Cumulative scores were then obtained by summing the four scores for each rat, the minimum score being 0 (no response to any of the four trials) and the maximum possible score being 12 (repeated flicking and licking of paws on each of the four trials).
# as §3, §4
substance,measurement,setting,value
all-D-TTNYT [RAP-103],established hypersensitivity in STZ rats,"[1]; 0.5.-0.02 mg/Kg b.w., daily, for 7 days, mechanical and cold allodynia",complete reversal of established hypersensitivity
same,mechanical allodynia in rats with neuropathic pain,"[1]; STZ diabetic rats, oral gavage daily, FIGS. 1A-B",reversed mechanical allodynia
same,morphine analgesia in an animal model of post-surgical pain (reversal of mechanical allodynia),[2],statistically significantly greater analgesia
same,morphine analgesia in an animal model of post-surgical pain (reversal of mechanical allodynia),[2]; listed as RAP103,potentiates morphine analgesia
same,shift to the left of the ED50 for morphine by addition of RAP-103,"[2]; RAP-103 0.5 mg/kg plus morphine 0.5 to 5.0 mg/kg, % reversal of mechanical allodynia at t=60 min, FIG. 5",about 2 fold
same,inflammation in the sciatic nerves of STZ rats (inflammatory mediators),[3],reducing significantly all examined inflammatory mediators
same,inflammation in the sciatic nerves of STZ rats (inflammatory mediators),[3]; listed as RAP103,significantly inhibited inflammation
same,cold allodynia in rats with neuropathic pain,[4],reversed cold allodynia
